{
  "source": "patent US5405849A",
  "about": "“Angiotensin II receptor blocking 2,3,6 substituted quinazolinones” (American Cyanamid Company, priority 1993, dated 1995)",
  "key": {"[1]": {"target": "angiotensin II receptors", "assay": "Angiotensin II receptor binding (displacement of 3H-angiotensin II), rat adrenocortical microsomes", "settings": "2 nM 3H-angiotensin II", "protocol": "The source of the angiotensin II receptors utilized in the screen is from rat adrenocortical microsomes. The cortices are placed in ice cold sucrose buffer (0.2 m sucrose, 1 mm EDTA, 10 mm Trizma base, pH 7.4) and homogenized in a chilled ground glass tissue grinder. The homogenate is centrifuged at 3000×g for 10 min. and the resultant supernatant is decanted through cheesecloth and centrifuged at 12,000×g for 3 min. […] Binding assays are performed by incubating aliquots of freshly prepared microsomes in the absence or presence of compound (40 uM final concentration). Ten minutes later, ^3 H-angiotensin II is added to each tube (2 nM final concentration) and incubated for 60 minutes at […]. The reaction is terminated by the addition of 3 ml of cold assay buffer without albumin and the bound and free radioactivity is separated rapidly through glass-fiber filters prewetted with assay buffer. After two additional 3 ml rinses, the filters are placed in scintillation fluid and counted in a scintillation counter to determine trapped radioactivity."}, "[2]": {"system": "angiotensin II (AII) vasopressor response", "assay": "AII challenge: antagonism of the vasopressor response of angiotensin II in conscious Okamoto-Aoki SHR", "type": "in vivo, rat (Okamoto-Aoki SHR)", "settings": "for inhibition in vivo at 30 mg/kg / inhibition in vivo at 1 mg/kg / inhibition in vivo at 10 mg/kg / inhibition in vivo at 2 mg/kg / inhibition in vivo at 5 mg/kg: Rattus norvegicus; for inhibition in vivo at 30 mg/kg / inhibition in vivo at 1 mg/kg / inhibition in vivo at 10 mg/kg / inhibition in vivo at 2 mg/kg: iv; for inhibition in vivo at 5 mg/kg: po", "text": "Conscious Male Okamoto-Aoki SHR, 16-20 weeks old, weighing approximately 330 g are purchased from Charles River Labs (Wilmington, Mass.). Conscious rats are restrained in a supine position with elastic tape. The area at the base of the tail is locally anesthetized by subcutaneous infiltration with 2% procaine. The ventral caudal artery and vein are isolated, and a cannula made of polyethylene (PE) 10-20 tubing (fused together by heat) is passed into the lower abdominal aorta and vena cava, respectively. The cannula is secured, heparinized (1,000 I.U./ml), sealed and the wound is closed. The animals are placed in plastic restraining cages in an upright position. The cannula is attached to a Statham P23Db pressure transducer, and pulsatile blood pressure is recorded to 10-15 minutes with a Gould Brush recorder.\nAngiotensin II (human sequence, Sigma Chem. Co., St. Louis, Mo.) of 0.05 and 0.1 ug/kg i.v. is injected into all rats (predosing response). Then a test compound, vehicle or a known angiotensin II antagonist is administered i.v., i.p. or orally to each set of rats. […] The vasopressor response of angiotensin II is measured for the increase in systolic blood pressure in mmHg. The percentage of antagonism or blockade of the vasopressor response of angiotensin II by a compound is calculated using the vasopressor response (increase in systolic blood pressure) of angiotensin II of each rat predosing the compound as 100%."}},
  "data": [
    {"smiles": "CCCCc1nc2ccc(C(CC)OC)cc2c(=O)n1Cc1ccc(-c2ccccc2-c2nnn[nH]2)cc1", "note": "(stereo not drawn) [Example 55, 2-Butyl-6-(1-methoxypropyl)-3-[[2'-(1H-tetrazol-5-yl) [1,1'-biphenyl]-4-yl]methyl]-4(3H) -quinazolinone]", "values": [
      {"measurement": "IC50", "setting": "[1]", "value": 5, "unit": "nM"},
      {"measurement": "Response change (systolic BP increase to AII)", "setting": "[2]; 30 mg/kg iv, AII .05 ug/kg, 30 min", "value": 10, "unit": "mmHg"},
      {"measurement": "Response change (systolic BP increase to AII)", "setting": "[2]; 30 mg/kg iv, AII .05 ug/kg, 90 min", "value": 15, "unit": "mmHg"},
      {"measurement": "Response change (systolic BP increase to AII)", "setting": "[2]; 30 mg/kg iv, AII .05 ug/kg, 150 min", "value": 20, "unit": "mmHg"},
      {"measurement": "Response change (systolic BP increase to AII)", "setting": "[2]; 30 mg/kg iv, AII .1 ug/kg, 30 min", "value": 15, "unit": "mmHg"},
      {"measurement": "Response change (systolic BP increase to AII)", "setting": "[2]; 30 mg/kg iv, AII .1 ug/kg, 90 min", "value": 5, "unit": "mmHg"},
      {"measurement": "Response change (systolic BP increase to AII)", "setting": "[2]; 30 mg/kg iv, AII .1 ug/kg, 150 min", "value": 5, "unit": "mmHg"},
      {"measurement": "inhibition in vivo at 30 mg/kg", "setting": "[2]; 0.5 h, 30 mg/kg iv, AII .05 ug/kg, 30 min", "value": 82, "unit": "%"},
      {"measurement": "inhibition in vivo at 30 mg/kg", "setting": "[2]; 0.5 h, 30 mg/kg iv, AII .1 ug/kg, 30 min", "value": 73, "unit": "%"},
      {"measurement": "inhibition in vivo at 30 mg/kg", "setting": "[2]; 1.5 h, 30 mg/kg iv, AII .05 ug/kg, 90 min", "value": 73, "unit": "%"},
      {"measurement": "inhibition in vivo at 30 mg/kg", "setting": "[2]; 1.5 h, 30 mg/kg iv, AII .1 ug/kg, 90 min", "value": 91, "unit": "%"},
      {"measurement": "inhibition in vivo at 30 mg/kg", "setting": "[2]; 2.5 h, 30 mg/kg iv, AII .05 ug/kg, 150 min", "value": 64, "unit": "%"},
      {"measurement": "inhibition in vivo at 30 mg/kg", "setting": "[2]; 2.5 h, 30 mg/kg iv, AII .1 ug/kg, 150 min", "value": 91, "unit": "%"}
    ]},
    {"smiles": "CCCCc1nc2ccc(C(C)O)cc2c(=O)n1Cc1ccc(-c2ccccc2-c2nnn[nH]2)cc1", "note": "(stereo not drawn) [Example 49, 2-Butyl-6-(1-hydroxyethyl)-3-[[2'-(1H-tetrazol-5-yl)-[1,1'-biphenyl]-4-yl]methyl]-4(3H)-quinazolinone]", "values": [
      {"measurement": "Response change (systolic BP increase to AII)", "setting": "[2]; 1 mg/kg iv, AII .05 ug/kg, 30 min", "value": 27, "unit": "mmHg"},
      {"measurement": "Response change (systolic BP increase to AII)", "setting": "[2]; 1 mg/kg iv, AII .05 ug/kg, 45 min", "value": 25, "unit": "mmHg"},
      {"measurement": "Response change (systolic BP increase to AII)", "setting": "[2]; 1 mg/kg iv, AII .05 ug/kg, 90 min", "value": 40, "unit": "mmHg"},
      {"measurement": "Response change (systolic BP increase to AII)", "setting": "[2]; 1 mg/kg iv, AII .1 ug/kg, 30 min", "value": 40, "unit": "mmHg"},
      {"measurement": "Response change (systolic BP increase to AII)", "setting": "[2]; 1 mg/kg iv, AII .1 ug/kg, 45 min", "value": 25, "unit": "mmHg"},
      {"measurement": "Response change (systolic BP increase to AII)", "setting": "[2]; 1 mg/kg iv, AII .1 ug/kg, 90 min", "value": 40, "unit": "mmHg"},
      {"measurement": "Response change (systolic BP increase to AII)", "setting": "[2]; 2 mg/kg iv, AII .05 ug/kg, 120 min", "value": 10, "unit": "mmHg"},
      {"measurement": "Response change (systolic BP increase to AII)", "setting": "[2]; 2 mg/kg iv, AII .05 ug/kg, 150 min", "value": 35, "unit": "mmHg"},
      {"measurement": "Response change (systolic BP increase to AII)", "setting": "[2]; 2 mg/kg iv, AII .05 ug/kg, 180 min", "value": 50, "unit": "mmHg"},
      {"measurement": "Response change (systolic BP increase to AII)", "setting": "[2]; 2 mg/kg iv, AII .1 ug/kg, 120 min", "value": 35, "unit": "mmHg"},
      {"measurement": "Response change (systolic BP increase to AII)", "setting": "[2]; 2 mg/kg iv, AII .1 ug/kg, 150 min", "value": 40, "unit": "mmHg"},
      {"measurement": "Response change (systolic BP increase to AII)", "setting": "[2]; 2 mg/kg iv, AII .1 ug/kg, 180 min", "value": 55, "unit": "mmHg"},
      {"measurement": "Response change (systolic BP increase to AII)", "setting": "[2]; 10 mg/kg iv, AII .05 ug/kg, 30 min", "value": 0, "unit": "mmHg"},
      {"measurement": "Response change (systolic BP increase to AII)", "setting": "[2]; 10 mg/kg iv, AII .05 ug/kg, 90 min", "value": 0, "unit": "mmHg"},
      {"measurement": "Response change (systolic BP increase to AII)", "setting": "[2]; 10 mg/kg iv, AII .1 ug/kg, 30 min", "value": 0, "unit": "mmHg"},
      {"measurement": "inhibition in vivo at 1 mg/kg", "setting": "[2]; 0.5 h, 1 mg/kg iv, AII .05 ug/kg, 30 min", "value": 40, "unit": "%"},
      {"measurement": "inhibition in vivo at 1 mg/kg", "setting": "[2]; 0.5 h, 1 mg/kg iv, AII .1 ug/kg, 30 min", "value": 27, "unit": "%"},
      {"measurement": "inhibition in vivo at 10 mg/kg", "setting": "[2]; 0.5 h, 10 mg/kg iv, AII .05 ug/kg, 30 min", "value": 100, "unit": "%"},
      {"measurement": "inhibition in vivo at 10 mg/kg", "setting": "[2]; 0.5 h, 10 mg/kg iv, AII .1 ug/kg, 30 min", "value": 100, "unit": "%"},
      {"measurement": "inhibition in vivo at 1 mg/kg", "setting": "[2]; 0.75 h, 1 mg/kg iv, AII .05 ug/kg, 45 min", "value": 45, "unit": "%"},
      {"measurement": "inhibition in vivo at 1 mg/kg", "setting": "[2]; 0.75 h, 1 mg/kg iv, AII .1 ug/kg, 45 min", "value": 55, "unit": "%"},
      {"measurement": "inhibition in vivo at 1 mg/kg", "setting": "[2]; 1.5 h, 1 mg/kg iv, AII .05 ug/kg, 90 min", "value": 11, "unit": "%"},
      {"measurement": "inhibition in vivo at 1 mg/kg", "setting": "[2]; 1.5 h, 1 mg/kg iv, AII .1 ug/kg, 90 min", "value": 27, "unit": "%"},
      {"measurement": "inhibition in vivo at 10 mg/kg", "setting": "[2]; 1.5 h, 10 mg/kg iv, AII .05 ug/kg, 90 min", "value": 100, "unit": "%"},
      {"measurement": "inhibition in vivo at 2 mg/kg", "setting": "[2]; 2 h, 2 mg/kg iv, AII .05 ug/kg, 120 min", "value": 78, "unit": "%"},
      {"measurement": "inhibition in vivo at 2 mg/kg", "setting": "[2]; 2 h, 2 mg/kg iv, AII .1 ug/kg, 120 min", "value": 36, "unit": "%"},
      {"measurement": "inhibition in vivo at 2 mg/kg", "setting": "[2]; 2.5 h, 2 mg/kg iv, AII .05 ug/kg, 150 min", "value": 23, "unit": "%"},
      {"measurement": "inhibition in vivo at 2 mg/kg", "setting": "[2]; 2.5 h, 2 mg/kg iv, AII .1 ug/kg, 150 min", "value": 27, "unit": "%"},
      {"measurement": "inhibition in vivo at 2 mg/kg", "setting": "[2]; 3 h, 2 mg/kg iv, AII .05 ug/kg, 180 min", "value": 11, "unit": "%"},
      {"measurement": "inhibition in vivo at 2 mg/kg", "setting": "[2]; 3 h, 2 mg/kg iv, AII .1 ug/kg, 180 min", "value": 0, "unit": "%"}
    ]},
    {"smiles": "CCCCc1nc2ccc(C(O)CC)cc2c(=O)n1Cc1ccc(-c2ccccc2-c2nnn[nH]2)cc1", "note": "(stereo not drawn) [Example 52]", "values": [
      {"measurement": "Response change (systolic BP increase to AII)", "setting": "[2]; 5 mg/kg oral, AII .05 ug/kg, 30 min", "value": 25, "unit": "mmHg"},
      {"measurement": "Response change (systolic BP increase to AII)", "setting": "[2]; 5 mg/kg oral, AII .05 ug/kg, 150 min", "value": 15, "unit": "mmHg"},
      {"measurement": "inhibition in vivo at 5 mg/kg", "setting": "[2]; 0.5 h, 5 mg/kg oral, AII .05 ug/kg, 30 min", "value": 52, "unit": "%"},
      {"measurement": "inhibition in vivo at 5 mg/kg", "setting": "[2]; 0.5 h, 5 mg/kg oral, AII .1 ug/kg, 30 min", "value": 43, "unit": "%"},
      {"measurement": "inhibition in vivo at 5 mg/kg", "setting": "[2]; 1.5 h, 5 mg/kg oral, AII .05 ug/kg, 90 min", "value": 66, "unit": "%"},
      {"measurement": "inhibition in vivo at 5 mg/kg", "setting": "[2]; 1.5 h, 5 mg/kg oral, AII .1 ug/kg, 90 min", "value": 63, "unit": "%"},
      {"measurement": "inhibition in vivo at 5 mg/kg", "setting": "[2]; 2.5 h, 5 mg/kg oral, AII .05 ug/kg, 150 min", "value": 71, "unit": "%"},
      {"measurement": "inhibition in vivo at 5 mg/kg", "setting": "[2]; 2.5 h, 5 mg/kg oral, AII .1 ug/kg, 150 min", "value": 60, "unit": "%"}
    ]}
  ]
}
